Results as given in patent publication US20100298141A1, “SUBSTITUTED PYRIDINE N-OXIDE HERBICIDES” (E. I. DU PONT DE NEMOURS AND COMPANY, priority 2007, published 2010).

Columns and labels:
Canada horseweed = assay: Test F preemergence test; assay type: in vivo, Conyza canadensis; settings: scale 0 to 100
Source text: (§1) Seeds of plant species selected from bermudagrass (Cynodon dactylon), Surinam grass (Brachiaria decumbens), large crabgrass (Digitaria sanguinalis), green foxtail (Setaria viridis), goosegrass (Eleusine indica), johnsongrass (Sorghum halepense), kochia (Kochia scoparia), pitted morningglory (Ipomoea lacunosa), purple nutsedge (Cyperus rotundus), common ragweed (Ambrosia elation), mustard (Brassica nigra), guineagrass (Panicum maximum), […] (Paspalum dilatatum), barnyardgrass (Echinochloa crus-galli), southern sandbur (Cenchrus echinatus), common sowthistle (Sonchus oleraceous), prickly […] spinosa), Italian ryegrass (Lolium multiflorum), common purslane (Portulaca oleracea), broadleaf signalgrass (Brachiaria platyphylla), common groundsel (Senecio vulgaris), common chickweed (Stellaria media), Virginia dayflower (Commelina virginica), annual bluegrass (Poa annua), naked crabgrass (Digitaria nuda), […] cochinchinensis), quackgrass (Elytrigia repens), Canada horseweed (Conyza canadensis), field bindweed (Convolvulus arvensis), […] (Bidens bipinnata), common mallow (Malva sylvestris), Russian thistle (Salsola kali), and sugarcane (Saccharum officinarum) were planted and treated preemergence with test chemicals formulated in a non-phytotoxic solvent mixture which included a surfactant. At a different time, sugarcane was treated with postemergence applications of some of the test chemicals formulated in the same manner. Plants were approximately 3- to 4-leaf stage for the postemergence treatments. Treated plants and controls were maintained in a greenhouse for 14 to 21 days, after which time all species were compared to controls and visually evaluated. […] A dash (-) response means no test result.

common sowthistle = assay: Test F preemergence test; assay type: in vivo, Sonchus oleraceous; settings: scale 0 to 100
Source text: as §1

common chickweed = assay: Test F preemergence test; assay type: in vivo, Stellaria media; settings: scale 0 to 100
Source text: as §1

spanishneedles = assay: Test F preemergence test; assay type: in vivo, Bidens bipinnata; settings: scale 0 to 100
Source text: as §1

winter barley = assay: Test C postemergence test; assay type: in vivo, Hordeum vulgare; settings: for Plant response rating (0 to 100), Barley: 31 g ai/ha; for Plant response rating, Barley: scale 0 to 100, 0 no effect, 100 complete control
Protocol: (§2) At the same time, plants selected from these crop and weed species and also winter barley (Hordeum vulgare), canarygrass (Phalaris minor), and chickweed (Stellaria media) were treated with postemergence applications of some of the test chemicals formulated in the same manner. Plants ranged in height from 2 to 18 cm (1- to 4-leaf stage) for postemergence treatments. […] At time of treatment, test pots were flooded to 3 cm above the soil surface, treated by application of test compounds directly to the paddy water, and then maintained at that water depth for the duration of the test. Treated plants and controls were maintained in a greenhouse for 13 to 15 days, after which time all species were compared to controls and visually evaluated. […] A dash (-) response means no test result.

chickweed = assay: Test C postemergence test; assay type: in vivo, Stellaria media; settings: for Plant response rating (0 to 100), Chickweed: 31 g ai/ha; for Plant response rating, Chickweed: scale 0 to 100, 0 no effect, 100 complete control
Protocol: as §2

canarygrass = assay: Test C postemergence test; assay type: in vivo, Phalaris minor; settings: for Plant response rating (0 to 100), Canarygrass: 31 g ai/ha; for Plant response rating, Canarygrass: scale 0 to 100, 0 no effect, 100 complete control
Protocol: as §2

windgrass = assay: Test C pre-/postemergence test; assay type: in vivo, Apera spica-venti; settings: Postemergence; for Plant response rating, Windgrass: scale 0 to 100, 0 no effect, 100 complete control
Source text: Seeds of plant species selected from blackgrass (Alopecurus myosuroides), downy brome (Bromus tectorum), green foxtail (Setaria viridis), Italian ryegrass (Lolium multiflorum), wheat (Triticum aestivum), wild oat (Avena fatua), catchweed bedstraw (Galium aparine), Russian thistle (Salsola kali), […] (Cynodon dactylon), Surinam grass (Brachiaria decumbens), cocklebur (Xanthium strumarium), corn (Zea mays), crabgrass (Digitaria sanguinalis), woolly cupgrass (Eriochloa villosa), giant foxtail (Setaria faberii), Goosegrass (Eleusin indica), johnsongrass (Sorghum halepense), kochia (Kochia scoparia), lambsquarters (Chenopodium album), morningglory (Ipomoea coccinea), eastern black nightshade (Solanum ptycanthum), yellow nutsedge (Cyperus esculentus), pigweed (Amaranthus retroflexus), common ragweed (Ambrosia elation), soybean (Glycine max), common (oilseed) sunflower (Helianthus annuus), and velvetleaf (Abutilon theophrasti) were planted and treated preemergence with test chemicals formulated in a non-phytotoxic solvent mixture which included a surfactant. At the same time, plants selected from these crop and weed species and also winter barley (Hordeum vulgare), canarygrass (Phalaris minor), and chickweed (Stellaria media) were treated with postemergence applications of some of the test chemicals formulated in the same manner. Plants ranged in height from 2 to 18 cm (1- to 4-leaf stage) for postemergence treatments. […] At time of treatment, test pots were flooded to 3 cm above the soil surface, treated by application of test compounds directly to the paddy water, and then maintained at that water depth for the duration of the test. […] A dash (-) response means no test result.

SMILES | Plant response rating, Horseweed (Canada horseweed; 16 g ai/ha, preemergence) | Horseweed plant response rating (Canada horseweed; 62 g ai/ha, Preemergence) | Horseweed plant response rating (Canada horseweed; 125 g ai/ha, preemergence) | Plant response rating, Horseweed (Canada horseweed; Preemergence, 31 g ai/ha) | Sowthistle plant response rating (common sowthistle; 125 g ai/ha, preemergence) | Plant response rating, Sowthistle (common sowthistle; Preemergence, 62 g ai/ha) | Plant response rating, Sowthistle (common sowthistle; Preemergence, 31 g ai/ha) | Plant response rating, Chickweed (common chickweed; 16 g ai/ha, preemergence) | Chickweed plant response rating (common chickweed; 62 g ai/ha, Preemergence) | Chickweed plant response rating (common chickweed; 125 g ai/ha, preemergence) | Plant response rating, Chickweed (common chickweed; Preemergence, 31 g ai/ha) | Plant response rating, Spanishneedles (spanishneedles; 16 g ai/ha, preemergence) | Spanishneedles plant response rating (spanishneedles; 125 g ai/ha, preemergence) | Plant response rating, Spanishneedles (spanishneedles; Preemergence, 62 g ai/ha) | Plant response rating, Spanishneedles (spanishneedles; Preemergence, 31 g ai/ha) | other results
CCn1nc(C(F)(F)F)c(C[S+]([O-])c2cc(C)cc[n+]2[O-])c1OCC(F)(F)F (racemic) [Compound 66] | 50 | 90 | 100 | 50 | 100 | 100 | 0 | 100 | 100 | 100 | 100 | 15 | 100 | 80 | 65 | Plant response rating, Sowthistle (common sowthistle; 16 g ai/ha, preemergence): 0
Cn1nc(OC(F)F)c(CS(=O)(=O)c2cccc[n+]2[O-])c1C(F)(F)F [Compound 80] | 0 | 100 | 100 | 0 | – | – | – | – | – | – | – | 0 | 0 | 0 | 0 | –
CCn1nc(C(F)(F)F)c(CS(=O)(=O)c2cc(C)cc[n+]2[O-])c1OCC(F)(F)F [Compound 64] | 0 | 50 | 100 | 0 | 100 | 100 | 0 | 65 | 100 | 100 | 100 | 30 | 60 | 40 | – | Plant response rating (0 to 100), Barley (winter barley): 0; Plant response rating, Barley (winter barley; 62 g ai/ha): 0; Plant response rating, Barley (winter barley; 125 g ai/ha): 5; Plant response rating, Barley (winter barley; 250 g ai/ha): 20; Plant response rating (0 to 100), Chickweed (chickweed): 0; Plant response rating, Chickweed (chickweed; 62 g ai/ha): 0; Plant response rating, Chickweed (chickweed; 125 g ai/ha): 0; Plant response rating, Chickweed (chickweed; 250 g ai/ha): 0; Plant response rating (0 to 100), Canarygrass (canarygrass): 0; Plant response rating, Canarygrass (canarygrass; 62 g ai/ha): 0; Plant response rating, Canarygrass (canarygrass; 125 g ai/ha): 5; Plant response rating, Canarygrass (canarygrass; 250 g ai/ha): 10; Plant response rating (0 to 100), Windgrass (windgrass; 31 g ai/ha): 0; Plant response rating (0 to 100), Windgrass (windgrass; 62 g ai/ha): 90; Plant response rating, Windgrass (windgrass; 125 g ai/ha): 98; Plant response rating, Windgrass (windgrass; 250 g ai/ha): 100
Cn1nc(C(F)(F)F)c(C[S+]([O-])c2ccc(F)c[n+]2[O-])c1OC(F)F (stereo not drawn) [Compound 58] | – | 98 | 98 | 98 | 100 | 100 | 0 | – | 95 | 100 | – | – | 65 | 50 | 50 | Plant response rating (0 to 100), Barley (winter barley): 0; Plant response rating, Barley (winter barley; 62 g ai/ha): 0; Plant response rating, Barley (winter barley; 125 g ai/ha): 20; Plant response rating, Barley (winter barley; 250 g ai/ha): 30; Horseweed plant response rating (Canada horseweed; 250 g ai/ha, preemergence): 100; Plant response rating (0 to 100), Chickweed (chickweed): 30; Plant response rating, Chickweed (chickweed; 62 g ai/ha): 60; Plant response rating, Chickweed (chickweed; 125 g ai/ha): 60; Plant response rating (0 to 100), Canarygrass (canarygrass): 0; Plant response rating, Canarygrass (canarygrass; 62 g ai/ha): 0; Plant response rating, Canarygrass (canarygrass; 125 g ai/ha): 0; Plant response rating, Canarygrass (canarygrass; 250 g ai/ha): 0; Sowthistle plant response rating (common sowthistle; 250 g ai/ha, preemergence): 100; Chickweed plant response rating (common chickweed; 250 g ai/ha, preemergence): 100; Plant response rating (0 to 100), Windgrass (windgrass; 31 g ai/ha): 20; Plant response rating (0 to 100), Windgrass (windgrass; 62 g ai/ha): 40; Plant response rating, Windgrass (windgrass; 125 g ai/ha): 70; Plant response rating, Windgrass (windgrass; 250 g ai/ha): 95; Spanishneedles plant response rating (spanishneedles; 250 g ai/ha, preemergence): 100
CC(Oc1c(C[S+]([O-])c2ccc(Cl)c[n+]2[O-])c(C(F)(F)F)nn1C)C(F)(F)F (stereo not drawn) [Compound 87] | – | – | – | – | – | – | – | 0 | – | 100 | 100 | 0 | 100 | 100 | 0 | Plant response rating, Chickweed (common chickweed; Preemergence, 62 g ai/ha): 100
Cc1cc[n+]([O-])c(S(=O)(=O)Cc2c(C(F)(F)F)nn(C)c2OCC(F)(F)F)c1 [Compound 31] | – | – | – | – | – | – | – | – | – | – | – | 0 | – | 100 | 100 | –
CCc1cc[n+]([O-])c(S(=O)(=O)Cc2c(C(F)(F)F)nn(C)c2OCC(F)(F)F)c1 [Compound 60] | – | 100 | 100 | 95 | 100 | 100 | 80 | – | 100 | 100 | 100 | – | 80 | 80 | 20 | Horseweed plant response rating (Canada horseweed; 250 g ai/ha, preemergence): 100; Sowthistle plant response rating (common sowthistle; 250 g ai/ha, preemergence): 100; Chickweed plant response rating (common chickweed; 250 g ai/ha, preemergence): 100; Spanishneedles plant response rating (spanishneedles; 250 g ai/ha, preemergence): 100
Cn1nc(C(F)(F)F)c(C[S+]([O-])c2ccc(Cl)c[n+]2[O-])c1OCC(F)F (stereo not drawn) [Compound 85] | 25 | – | 100 | 100 | 100 | 100 | 0 | – | – | – | – | 50 | 100 | 100 | 50 | Plant response rating, Horseweed (Canada horseweed; Preemergence, 62 g ai/ha): 100; Plant response rating, Sowthistle (common sowthistle; 16 g ai/ha, preemergence): 0
